Data taken from PMC6458995, “MAP4K4 Inhibition Promotes Survival of Human Stem Cell-Derived Cardiomyocytes and Reduces Infarct Size In Vivo” (Cell Stem Cell, 2019).

Key:
cardiac MAP4K4 = cardiac MAP4K4 (Mus musculus, UniProt P97820); assay: Target engagement in vivo (desthiobiotin-ATP probe on cardiac lysates after oral dosing); details: dose-response and time course
NUAK = assay: HTRF Transcreener ADP kinase assay; assay type: biochemical, human
iCell cardiomyocytes = assay: Human cardiac muscle cell death, DRAQ7 uptake (high-content); assay type: cell-based; details: H2O2, micromolar concentrations
Description: iCell cardiomyocytes were thawed, transferred to Plating Medium, counted using a Vi-CELL XR cell viability analyzer (Beckman Coulter), and seeded into 24-well plates for RNA collection (60,000 cells well^-1; Greiner) or μClear half-area 96-well plates for gene silencing (10,000 cells well^-1; Greiner). Plates were coated with 10 μg ml^-1 collagen type I (BD Biosciences). Cells were cultured in iCell Cardiomyocytes Plating Medium for 2 d and in Maintenance Medium thereafter. For compound dose-response comparisons, the cells were deposited in Plating Medium at 10,000 cells well^-1 in 0.1% (w/v) gelatin-coated 384-well white Greiner plates and were cultured as above for 8 d before treatment. […]
To measure loss of membrane integrity, iCell hiPSC-CMs were co-stained for 15 min at 37°C with 0.3 μM DRAQ7 (Biostatus), a cell-impermeable dye, and with 0.8 μM Hoescht 33342 (Molecular Probes), as the membrane-permeable dye. Dyes were removed and the nuclear fluorescence scored (typically, 15,000-20,000 cells well^-1) using a Cellomics ArrayScan VTI High Content Screening platform. The line harbors a cardiomyocyte-specific Myh6-driven reporter gene for monomeric red fluorescent protein (RFP), enabling cell death to be scored exclusively in the myocyte population. Successfully transduced cells were identified on the basis of TurboGFP fluorescence. […]

Chain of cardiac MAP4K4 (P97820 2-310 limits assumed): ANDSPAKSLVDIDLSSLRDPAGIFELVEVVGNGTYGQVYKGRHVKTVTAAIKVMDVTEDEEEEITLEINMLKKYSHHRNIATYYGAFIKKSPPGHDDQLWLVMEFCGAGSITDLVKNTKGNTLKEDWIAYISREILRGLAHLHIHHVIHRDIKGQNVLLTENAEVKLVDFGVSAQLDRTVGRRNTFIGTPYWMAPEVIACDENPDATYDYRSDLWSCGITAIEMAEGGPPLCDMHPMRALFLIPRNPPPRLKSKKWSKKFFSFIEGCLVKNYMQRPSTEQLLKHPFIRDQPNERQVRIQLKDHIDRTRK

Row | Compound | inhibition of ATP binding to cardiac MAP4K4 in vivo (cardiac MAP4K4) | Fold Selectivity (NUAK; NUAK versus MAP4K4) | DMX-5804 vs F1386-0303 (NUAK; ratio of fold selectivity, NUAK) | suppression of human cardiac muscle cell death (DRAQ7 uptake) (iCell cardiomyocytes)
1 | COCCOc1ccc(-c2cn(-c3ccccc3)c3nc[nH]c(=O)c23)cc1 [DMX-5804, 5-[4-(2-methoxy-ethoxy)-phenyl]-7-phenyl-3,7-dihydro-pyrrolo[2,3-d]pyrimidin-4-one] | substantiated | 47 | 2.35 | 
2 | Oc1ncnc2c1c(-c1ccccc1)cn2-c1ccccc1 [F1386-0303, 5,7-diphenyl-7H-pyrrolo[2,3-d]pyrimidin-4-ol] |  |  |  | highly protective
